# Reference: patent US20050074879A1, “Antisense oligonucleotide modulation of STAT3 expression” (priority 2000, published 2005)
# Oligonucleotides are written 5' to 3', each unit as a sugar letter and its base; * is a phosphorothioate linkage, no mark a phosphodiester; rarer units and linkages stand in square brackets, end groups in braces. Plain capitals give the bases only. e = 2'-O-(2-methoxyethyl) (MOE); [5mC] = 5-methylcytosine; d = 2'-deoxy (DNA)
# Assays:
# [1] = tested on: Human STAT3 mRNA; test: Inhibition of human STAT3 mRNA levels in A549 cells, 75 nM, real-time PCR (Table 13); format: cell-based; conditions: 75 nM oligonucleotide with LIPOFECTIN, real-time PCR PPS 199, percent inhibition relative to untreated control cells, average of 2 experiments
# How it was run: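 A549 cells at 65–75% confluency were transfected in duplicate with 75 nM oligonucleotide plus […] Lipofectin for 4–7 h at 37° C and harvested 16–24 h later. STAT3 mRNA was quantified by real-time RT-PCR with primer-probe set PPS 199 and normalized to RiboGreen total RNA. Inhibition is relative to untreated controls.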
# [2] = tested on: Human STAT3 mRNA; test: Human STAT3 mRNA dose response in A549 cells, real-time PCR with PPS 199 (Table 20); format: cell-based; conditions: 16 hours, LIPOFECTIN, − decrease, + increase relative to untreated control cells
# Procedure: An additional dose-response experiment was preformed in A549 cells. A549 cells were treated with 18.75, 37.5, 75, or 150 nM of oligonucleotide mixed with 3 ug/mL LIPOFECTIN per 100 nM oligonucleotide as described by other examples herein. Control oligonucleotides used were ISIS 129686 (SEQ ID NO: 394) and ISIS 129690 (SEQ ID NO: 393). Untreated cells served as controls. Following 16 hours of treatment, RNA was prepared from cells for subsequent real-time PCR analysis.
# Human STAT3 mRNA expression levels were quantitated by real-time PCR using primer probe set PPS 199 and gene target quantities were normalized using Ribogreen as described in other examples herein. A “−” or “+” designation in the dose response results indicates a decrease or increase of STAT 3 mRNA expression, respectively, relative to untreated control cells.
Substance,% Inhib (inhibition of human STAT 3 mRNA levels) [1],Percent change of STAT3 expression in A549 cells using PPS 199 ([2]; 18.75 nM oligonucleotide),Percent change of STAT3 expression in A549 cells using PPS 199 ([2]; 37.5 nM oligonucleotide),Percent change of STAT3 expression in A549 cells using PPS 199 ([2]; 75 nM oligonucleotide),Percent change of STAT3 expression in A549 cells using PPS 199 ([2]; 150 nM oligonucleotide)
337332 (antisense eG*eA*eA*eG*e[5mC]*d[5mC]*d[5mC]*dT*dT*dG*d[5mC]*d[5mC]*dA*dG*d[5mC]*e[5mC]*eA*eT*eG*eT) [compound 337332],91%,−31%,−61%,−77%,−87%
337333 (antisense eA*eA*eG*eG*eA*dG*dA*dA*dG*d[5mC]*d[5mC]*d[5mC]*dT*dT*dG*e[5mC]*e[5mC]*eA*eG*e[5mC]) [compound 337333],90%,−8%,−39%,−59%,−75%
337348 (antisense eT*e[5mC]*e[5mC]*eG*eA*dA*dT*dG*d[5mC]*d[5mC]*dT*d[5mC]*d[5mC]*dT*d[5mC]*e[5mC]*eT*eT*eG*eG) [compound 337348],92%,−26%,−43%,−55%,−77%
